Results reported in BigSolDB 2.1.

COC(=O)c1c(Cl)nn(C)c1S(=O)(=O)NC(=O)Nc1nc(OC)cc(OC)n1
solubility (mole fraction)
Conditions | 278.15 K | 283.15 K | 288.15 K | 293.15 K | 298.15 K | 303.15 K | 308.15 K | 313.15 K | 318.15 K | 323.15 K
in DMF | 0.000768 | 0.000905 | 0.00105 | 0.00123 | 0.00142 | 0.0016 | 0.00182 | 0.00204 | 0.00227 | 0.00254
in ethanol | 3.56e-05 | 4.18e-05 | 4.87e-05 | 5.64e-05 | 6.48e-05 | 7.29e-05 | 8.22e-05 | 9.25e-05 | 0.000103 | 0.000116
in isopropanol | 3.3e-06 | 3.57e-06 | 3.85e-06 | 4.17e-06 | 4.51e-06 | 4.93e-06 | 5.33e-06 | 5.71e-06 | 6.19e-06 | 6.64e-06
in water | 3.24e-07 | 3.38e-07 | 3.51e-07 | 3.66e-07 | 3.81e-07 | 3.96e-07 | 4.11e-07 | 4.26e-07 | 4.44e-07 | 4.62e-07
